Reference: patent US20210261642A1, “SOLUBILITY OF GLP-1 PEPTIDE” (Novo Nordisk A/S, priority 2017, published 2021)

Test: Assay (I): Determination of Solubility (96-well plate, pH 3.0-11.0, organic solvent 0-70% w/w, UV absorption at 280 nm)
Assay type: physicochemical
Details: Method 1
Experimental: Assay (I): Determination of Solubility
96-Well Plate Preparation
96-well plates containing target peptide in a solid form were prepared in one of two ways:
Method 1 (evaporation): Addition of 100 μl stock solution of said peptide at a concentration of 4-6 mg/ml to each well of a 96-well half area plate (150 μl well size). Subsequently the solvent was evaporated by applying a vacuum until the solvent was completely removed.
Method 2 (precipitation): Addition of a certain volume of a stock solution of said peptide containing to each well of a 96-well half area plate followed by the addition of a certain volume of concentrated phosphoric acid to obtain a pH of 4.6 followed by addition of a certain volume of ethanol resulting in a final ethanol concentration of 20% v/v. Subsequently the plate was stored at 4° C. for 1 h and then centrifuged at 4,000 rpm for 20 min. Finally the supernatant was removed. The concentration of the stock solution was chosen in a way that the final amount of peptide after supernatant removal was >0.4 mg per well.
In both cases the stock solution was prepared by adding de-ionized water to a certain amount of powder of said peptide followed by a stepwise addition of small amounts of a concentrated sodium hydroxide solution until said peptide was completely in solution.
To determine solubility of a target peptide at different pH and organic solvent concentrations, two different buffer systems were used in independent experiments to cover the whole range from pH 3.0 to pH 11.0. Buffer system 1 covers pH 3.0-7.5 and buffer system 2 covers pH 7.5-11.0. For each buffer system 96 different solvent compositions were premixed in the following way: • 1. A low pH buffer (adjusted to either pH 3.0 or pH 7.5) and a high pH buffer (adjusted to either pH 7.5 or pH 11.0) were mixed at 8 different ratios to obtain values between pH 3.0 and pH 7.5 or pH 7.5 and pH 11.0, respectively. The total volume after mixing was 300 μl. • 2. 12 different amounts of organic solvent were then added to these buffers to obtain organic solvent (e.g. ethanol) concentrations between 0 and 70% w/w. • 3. Water was then added to obtain a total weight of 1.0 g of solvent in each well.
After preparing the 96 different solvent systems, 100 μl of each system was transferred to the 96-well plate containing the solid form of the target peptide (prepared as described in the section “96-well plate preparation”). The plate was then stored at a given temperature (between 5° C. and 70° C.) for a given time on a rotating shaker set to 400 rpm. At regular time intervals the plate was centrifuged (4,000 rpm for 10 min) and a 10 μl sample was taken from each well. The samples were then analysed by UV absorption at 280 nm for peptide quantification. Peptide concentration results are given as UV absorption at 280 nm of the sample subtracted UV absorption at 280 nm of a well comprising 10 μl water.
The buffers used were as follows: • Buffer system 1 (for the pH range from pH 3.0-7.5)
• Buffer system 2 (for the pH ranae from pH 7.5-11.0)
Solubility of liraglutide was determined using Assay (I) described herein. Liraglutide was prepared using Method 1 (evaporation) or Method 2 (precipitation) as described in subsection “96-well plate preparation”.

Peptide concentration after 180 min (MeCN 50.9% w/w, pH 8.0, 5° C.): 2.2 mg/mL | Peptide concentration after 24 h (MeCN 50.9% w/w, pH 8.0, 5° C.): >4.0 mg/mL | Peptide concentration after 5 min (MeCN 50.9% w/w, pH 8.5, 5° C.): 0.6 mg/mL | Peptide concentration after 180 min (MeCN 50.9% w/w, pH 8.5, 5° C.): 2.6 mg/mL | Peptide concentration after 24 h (MeCN 50.9% w/w, pH 8.5, 5° C.): >4.0 mg/mL | Peptide concentration after 5 min (MeCN 50.9% w/w, pH 9.0, 5° C.): 0.6 mg/mL | Peptide concentration after 180 min (MeCN 50.9% w/w, pH 9.0, 5° C.): 2.0 mg/mL | Peptide concentration after 24 h (MeCN 50.9% w/w, pH 9.0, 5° C.): >4.0 mg/mL | Peptide concentration after 5 min (MeCN 50.9% w/w, pH 9.5, 5° C.): 1.0 mg/mL | Peptide concentration after 180 min (MeCN 50.9% w/w, pH 9.5, 5° C.): 2.4 mg/mL | Peptide concentration after 24 h (MeCN 50.9% w/w, pH 9.5, 5° C.): >4.0 mg/mL | Peptide concentration after 5 min (MeCN 50.9% w/w, pH 10.0, 5° C.): 1.5 mg/mL | Peptide concentration after 180 min (MeCN 50.9% w/w, pH 10.0, 5° C.): 2.6 mg/mL | Peptide concentration after 24 h (MeCN 50.9% w/w, pH 10.0, 5° C.): >4.0 mg/mL | Peptide concentration after 5 min (MeCN 50.9% w/w, pH 10.5, 5° C.): 0.9 mg/mL | Peptide concentration after 180 min (MeCN 50.9% w/w, pH 10.5, 5° C.): 2.1 mg/mL | Peptide concentration after 24 h (MeCN 50.9% w/w, pH 10.5, 5° C.): 3.8 mg/mL | Peptide concentration after 5 min (MeCN 50.9% w/w, pH 11.0, 5° C.): 0.7 mg/mL | Peptide concentration after 180 min (MeCN 50.9% w/w, pH 11.0, 5° C.): 2.2 mg/mL | Peptide concentration after 24 h (MeCN 50.9% w/w, pH 11.0, 5° C.): >4.0 mg/mL | Peptide concentration after 5 min (MeCN 57.3% w/w, pH 8.0, 5° C.): 0.5 mg/mL | Peptide concentration after 180 min (MeCN 57.3% w/w, pH 8.0, 5° C.): 1.6 mg/mL | Peptide concentration after 24 h (MeCN 57.3% w/w, pH 8.0, 5° C.): 3.4 mg/mL | Peptide concentration after 5 min (MeCN 57.3% w/w, pH 8.5, 5° C.): 0.5 mg/mL | Peptide concentration after 180 min (MeCN 57.3% w/w, pH 8.5, 5° C.): 1.6 mg/mL | Peptide concentration after 24 h (MeCN 57.3% w/w, pH 8.5, 5° C.): 3.7 mg/mL | Peptide concentration after 5 min (MeCN 57.3% w/w, pH 9.0, 5° C.): 0.5 mg/mL | Peptide concentration after 180 min (MeCN 57.3% w/w, pH 9.0, 5° C.): 1.9 mg/mL | Peptide concentration after 24 h (MeCN 57.3% w/w, pH 9.0, 5° C.): >4.0 mg/mL | Peptide concentration after 5 min (MeCN 57.3% w/w, pH 9.5, 5° C.): 1.0 mg/mL | Peptide concentration after 180 min (MeCN 57.3% w/w, pH 9.5, 5° C.): 2.0 mg/mL | Peptide concentration after 24 h (MeCN 57.3% w/w, pH 9.5, 5° C.): 4.0 mg/mL | Peptide concentration after 5 min (MeCN 57.3% w/w, pH 10.0, 5° C.): 1.4 mg/mL | Peptide concentration after 180 min (MeCN 57.3% w/w, pH 10.0, 5° C.): 1.6 mg/mL | Peptide concentration after 24 h (MeCN 57.3% w/w, pH 10.0, 5° C.): 1.8 mg/mL | Peptide concentration after 5 min (MeCN 57.3% w/w, pH 10.5, 5° C.): 1.1 mg/mL | Peptide concentration after 180 min (MeCN 57.3% w/w, pH 10.5, 5° C.): 1.1 mg/mL | Peptide concentration after 24 h (MeCN 57.3% w/w, pH 10.5, 5° C.): 1.6 mg/mL | Peptide concentration after 5 min (MeCN 57.3% w/w, pH 11.0, 5° C.): 0.9 mg/mL | Peptide concentration after 180 min (MeCN 57.3% w/w, pH 11.0, 5° C.): 1.4 mg/mL | Peptide concentration after 24 h (MeCN 57.3% w/w, pH 11.0, 5° C.): 2.6 mg/mL | Peptide concentration after 5 min (MeCN 63.6% w/w, pH 8.0, 5° C.): 0.3 mg/mL | Peptide concentration after 180 min (MeCN 63.6% w/w, pH 8.0, 5° C.): 0.6 mg/mL | Peptide concentration after 24 h (MeCN 63.6% w/w, pH 8.0, 5° C.): 2.0 mg/mL | Peptide concentration after 5 min (MeCN 63.6% w/w, pH 8.5, 5° C.): 0.6 mg/mL | Peptide concentration after 180 min (MeCN 63.6% w/w, pH 8.5, 5° C.): 0.8 mg/mL | Peptide concentration after 24 h (MeCN 63.6% w/w, pH 8.5, 5° C.): 2.1 mg/mL | Peptide concentration after 5 min (MeCN 63.6% w/w, pH 9.0, 5° C.): 1.4 mg/mL | Peptide concentration after 180 min (MeCN 63.6% w/w, pH 9.0, 5° C.): 0.9 mg/mL | Peptide concentration after 24 h (MeCN 63.6% w/w, pH 9.0, 5° C.): 2.6 mg/mL | Peptide concentration after 5 min (MeCN 63.6% w/w, pH 9.5, 5° C.): 0.2 mg/mL
Structure (SMILES): CCCCCCCCCCCCCCCC(=O)N[C@@H](CCC(=O)NCCCC[C@H](NC(=O)[C@H](C)NC(=O)[C@H](C)NC(=O)[C@H](CCC(N)=O)NC(=O)CNC(=O)[C@H](CCC(=O)O)NC(=O)[C@H](CC(C)C)NC(=O)[C@H](Cc1ccc(O)cc1)NC(=O)[C@H](CO)NC(=O)[C@H](CO)NC(=O)[C@@H](NC(=O)[C@H](CC(=O)O)NC(=O)[C@H](CO)NC(=O)[C@@H](NC(=O)[C@H](Cc1ccccc1)NC(=O)[C@@H](NC(=O)CNC(=O)[C@H](CCC(=O)O)NC(=O)[C@H](C)NC(=O)[C@@H](N)Cc1cnc[nH]1)[C@@H](C)O)[C@@H](C)O)C(C)C)C(=O)N[C@@H](CCC(=O)O)C(=O)N[C@@H](Cc1ccccc1)C(=O)N[C@H](C(=O)N[C@@H](C)C(=O)N[C@@H](Cc1c[nH]c2ccccc12)C(=O)N[C@@H](CC(C)C)C(=O)N[C@H](C(=O)N[C@@H](CCCNC(=N)N)C(=O)NCC(=O)N[C@@H](CCCNC(=N)N)C(=O)NCC(=O)O)C(C)C)[C@@H](C)CC)C(=O)O [liraglutide, Arg34,Lys26-(N-epsilon-(gamma-L-glutamyl(N-alfa-hexadecanoyl)))-GLP-1(7-37)]
